From patent publication US11001564B2, “Substituted chromane-8-carboxamide compounds and analogues thereof, and methods using same” (priority 2016, dated 2021) come the findings set out here.

In the assay the test system is HBV rcDNA in HepDE19 cells. Description: HepDE19 assay with bDNA quantitation of HBV rcDNA. Type of assay: cell-based, hepatitis B virus (HBV). Put shortly:
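HepG2-derived HepDE19 cells, switched to Tet-free medium, were exposed 7 days at 37 °C to compound (8-point ½-log series from 25 μM, 0.5% DMSO). HBV rcDNA measured by bDNA assay with HBV-specific probes; EC50/EC90 by 4-parameter fit. CC50 from CellTiter-Glo ATP on replicate plates after 4 days.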

The mark [1] stands for this setting: Hepatitis B virus, HepDE19, 168 h, HepDE19 cells, 7 day incubation, rcDNA by Quantigene 2.0 bDNA assay, read-out: DE-19 bDNA EC50.

Like-named read-outs stand apart in the source and are kept apart here.

Consider `O=C(N[C@H]1CCOc2c(C(=O)Nc3ccc(F)c(F)c3)cccc21)OCc1cccnc1` [Compound 23], for which the concentration for a half-maximal effect (EC50) (Hepatitis B virus, HepDE19, 168 h, read-out: DE-19 bDNA EC50, HepDE19 cells, 7 day incubation, rcDNA by Quantigene 2.0 bDNA assay) was 3 µM.

`O=C(N[C@H]1CCOc2c(C(=O)Nc3ccc(F)c(F)c3)cccc21)OCc1ccccn1` [Compound 27, Pyridin-2-ylmethyl-(8-((3,4-difluorophenyl)carbamoyl)chroman-4-yl)carbamate]: under setting [1], the EC50 worked out at 2.5 µM. For `COC(=O)N[C@H]1CCOc2c(C(=O)Nc3cc(F)cc(F)c3)cccc21` [Compound 46, Methyl (S)-(8-((3,5-difluorophenyl)carbamoyl)chroman-4-yl)carbamate], the EC50 under setting [1] worked out at 5.8 µM. As to `CN1CCC(COC(=O)N[C@H]2CCOc3c(C(=O)Nc4ccc(F)c(F)c4)cccc32)C1` (stereo partly drawn) [Compound 127, (1-methylpyrrolidin-3-yl)methyl ((S)-8-((3,4-difluorophenyl)carbamoyl)chroman-4-yl)carbamate], the EC50 under setting [1] turned out to be 24 µM.

Consider `COC1CCOc2c(C(=O)Nc3ccc(F)c(F)c3)cccc21` (single isomer, unassigned) [Compound 6, N-(3,4-difluorophenyl)-4-methoxychromane-8-carboxamide], for which the concentration for a half-maximal effect (EC50) (HepDE19 cells, 7 day incubation, rcDNA by Quantigene 2.0 bDNA assay, read-out: DE-19 bDNA EC50) is 4.3 µM. In the case of `O=C1CC[C@H](COC(=O)N[C@H]2CCOc3c(C(=O)Nc4ccc(F)c(F)c4)cccc32)N1` [Compound 119, ((R)-5-Oxopyrrolidin-2-yl)methyl ((S)-8-((3,4-difluorophenyl)carbamoyl)chroman-4-yl)carbamate], the EC50 under setting [1] is 8.7 µM.

Take `Cc1cc(NC(=O)c2ccc(F)c3c2OCC[C@@H]3NC(=O)OC[C@H]2CCC(=O)N2)ccc1F` [Compound 136, ((R)-5-Oxopyrrolidin-2-yl)methyl ((S)-5-fluoro-8-((4-fluoro-3-methylphenyl)carbamoyl)chroman-4-yl)carbamate]: under setting [1], the 50% effective concentration (EC50) came to 1.2 µM.
